For test [1], the system named is Pseudomonas aeruginosa. The experiment in a line: Antimicrobial activity against Pseudomonas aeruginosa MTCC 741 after 24 hrs by serial two-fold broth dilution method. The format is functional. To be noted: MTCC 741, 24 h.
Test [2] deals with Lysinibacillus sphaericus. The experiment in a line: Antimicrobial activity against Bacillus sphaericus MTCC 11 after 24 hrs by serial two-fold broth dilution method. Particulars: MTCC 11, 24 h. The format is functional.
Test [3] concerns Klebsiella aerogenes. The experiment in a line: Antimicrobial activity against Klebsiella aerogenes MTCC 39 after 24 hrs by serial two-fold broth dilution method. The format is functional. To be noted: MTCC 39, 24 h.
Test [4] concerns Staphylococcus aureus. Put plainly: Antimicrobial activity against Staphylococcus aureus MTCC 96 after 24 hrs by serial two-fold broth dilution method. Particulars: MTCC 96, 24 h. The format is functional.
For test [5], the system named is Bacillus subtilis. Put plainly: Antimicrobial activity against Bacillus subtilis MTCC 441 after 24 hrs by serial two-fold broth dilution method. The format is functional. To be noted: MTCC 441, 24 h. (Dilution methods test growth across graded concentrations, often in twofold steps.)
Test [6] has as its system Chromobacterium violaceum. The experiment in a line: Antimicrobial activity against Chromobacterium violaceum MTCC 2625 after 24 hrs by serial two-fold broth dilution method. The format is functional. Particulars: MTCC 2625, 24 h.
In test [7] the test system is Rattus norvegicus. The experiment in a line: Antiinflammatory activity against albino rat assessed as inhibition of carrageenin induced paw edema at 100 mg/kg, po administered for 1 hr followed by carrageenin challenge measured after 4 hrs. The format is functional.
Test [8] has as its system Escherichia coli. The experiment in a line: Antimicrobial activity against Escherichia coli after 24 hrs by serial dilution method. The format is functional.
The test system of test [9] is Aspergillus fumigatus. The experiment in a line: Antimicrobial activity against Aspergillus fumigatus HIC6094 by serial two-fold broth dilution method. The format is functional.
In test [10] the test system is Trichophyton rubrum. Put plainly: Antimicrobial activity against Trichophyton rubrum IFO9185 by serial two-fold broth dilution method. The format is functional.
Test [11] concerns Trichophyton mentagrophytes. Put plainly: Antimicrobial activity against Trichophyton mentagrophytes IFO40996 by serial two-fold broth dilution method. The format is functional.
For test [12], the system named is Candida albicans. The experiment in a line: Antimicrobial activity against Candida albicans ATCC 10231 by serial two-fold broth dilution method. The format is functional.
Test [13] concerns Escherichia coli. The experiment in a line: Antibacterial activity against Escherichia coli ATCC 25922 after 24 to 48 hrs by two-fold microdilution susceptibility assay. The format is functional.
Test [14] concerns HeLa. The experiment in a line: Cytotoxicity against human HeLa cells assessed as growth inhibition after 48 hrs by SRB assay. The format is functional. (In SRB staining, fixed cells bind dye roughly in proportion to their protein.)
The test system of test [15] is Candida albicans. The experiment in a line: Antifungal activity against Candida albicans after 24 to 48 hrs by two-fold microdilution susceptibility assay. The format is functional.
Test [16] has as its system HepG2. The experiment in a line: Cytotoxicity against human HepG2 cells assessed as growth inhibition after 48 hrs by SRB assay. The format is functional. To be noted: HepG2, 48 h.
Test [17] has as its system EKVX. Put plainly: Cytotoxicity against human EKVX cells assessed as growth inhibition after 48 hrs by SRB assay. The format is functional.
The nature of test [18]: Cytotoxicity against human RPMI8226 cells assessed as growth inhibition after 48 hrs by SRB assay. The format is functional. Particulars: RPMI-8226, 48 h.
In test [19] the test system is NCI-H522. The experiment in a line: Cytotoxicity against human NCI-H522 cells assessed as growth inhibition after 48 hrs by SRB assay. The format is functional. Particulars: NCI-H522, 48 h.
A short description of test [20]: Cytotoxicity against human HOP92 cells assessed as growth inhibition after 48 hrs by SRB assay. The format is functional. To be noted: HOP-92, 48 h.
Test [21] concerns CCRF-CEM. The experiment in a line: Cytotoxicity against human CCRF-CEM cells assessed as growth inhibition after 48 hrs by SRB assay. The format is functional.
The test system of test [22] is Plasmodium falciparum. Put plainly: Antiparasitic activity against Plasmodium falciparum by cell based assay. The format is functional, organism-based.
Test [23] has as its system Leishmania donovani. The experiment in a line: Antiparasitic activity against Leishmania donovani by cell based assay. The format is functional, organism-based.

Converted amounts (≈) assume the structure as drawn. A value given as a limit tells only on which side of the number the result lay.

For the compound `CC1(C)S[C@@H]2[C@H](NC(=O)Cc3ccccc3)C(=O)N2[C@H]1C(=O)O` [PENICILLIN G], the MIC in test [1], in [2], in test [3], in test [4], in test [5] and in [6] was 1.56 µg/mL (≈ 4.67 µM) in each case.
On to `CC(C(=O)O)c1cccc(C(=O)c2ccccc2)c1` (centres undefined) [KETOPROFEN], for which, in test [7], the inhibition in vivo (in general, the relative decrease from the control value, in per cent) at 100 mg/kg turned out to be 63%.
Regarding `CN(C)[C@@H]1C(O)=C(C(N)=O)C(=O)[C@@]2(O)C(O)=C3C(=O)c4c(O)cccc4[C@@](C)(O)[C@H]3C[C@@H]12` [TETRACYCLINE], the lowest concentration to inhibit growth in test [8] (MIC) was 39 µg/mL (≈ 87.8 µM).
Regarding `Cc1nn(-c2ccccc2)c(C)c1-c1cc(-c2ccc(Cl)cc2)nc(N2C(=O)CSC2c2ccco2)n1` (centres undefined), the MIC in [9], in [10], in test [11] and in test [12] was 14 µg/mL (≈ 26.5 µM) each time.
Regarding `Cc1ccc(N2C(=O)CS/C2=N/N=C\c2cn(-c3ccccc3)nc2-c2ccc(Br)s2)cc1`, in test [13], the MIC (usually the least concentration at which growth counts as inhibited) was found to be 25 µg/mL (≈ 46.6 µM).
As to `Cc1ccc(N2C(=O)CSC2c2cn(-c3ccccc3)nc2-c2cc3ccccc3o2)cc1` (centres undefined), the GI50 (in general, the concentration at which growth is held to half of that of the control) in test [14] amounted to 1.2 µg/mL (≈ 2.66 µM).
Take `O=C1CS/C(=N/N=C\c2cn(-c3ccccc3)nc2-c2ccc(Br)s2)N1c1ccc(Cl)cc1`: 12.5 µg/mL (≈ 22.4 µM) was the least that counted as inhibitory in test [15] (MIC).
Regarding `Cc1nn(-c2ccccc2)c(C)c1-c1cc(-c2ccc(Cl)cc2)nc(N2C(=O)CSC2c2ccc(N(C)C)cc2)n1` (centres undefined), the MIC in test [9], in test [10], in test [11] and in test [12] was 14 µg/mL (≈ 24.1 µM) throughout.
With `C(=N\Nc1nc(-c2ccc3c(c2)CCCC3)cs1)/c1cn(-c2ccccc2)nc1-c1cc2ccccc2o1`, the GI50 in [16] amounted to 5 µg/mL (≈ 9.7 µM).
For `O=C1NC(=S)S/C1=C\c1cn(-c2ccccc2)nc1-c1ccccc1`, the 50% growth inhibitory concentration (GI50) turned out to be 3.03 µM in test [17]; 2520 nM in test [18]; 2960 nM in [19]; 620 nM in [20]; 2500 nM in test [21]. For the same compound, in test [20] (read-out: LC50 (the source's name)), the CC50 is greater than 100 µM.
In test [8], `CC(=O)OC[C@@H]1O[C@@H](N2C(=O)/C(=C/c3cn(-c4ccccc4)nc3-c3ccc(Br)cc3)SC2=S)[C@@H](OC(C)=O)[C@H](OC(C)=O)[C@@H]1OC(C)=O` had an MIC of 143 µg/mL (≈ 185 µM).
For `CC1=NN(C2=NC(=O)CS2)C(c2ccccc2)C1` (centres undefined), the IC50 (in general, the concentration that inhibits the measured activity by half) in test [22] was greater than 5 µg/mL; in test [23], greater than 30 µg/mL.

Values taken from ChEMBL document CHEMBL3779866, “Synthetic approaches, structure activity relationship and biological applications for pharmacologically attractive pyrazole/pyrazoline-thiazolidine-based hybrids” (Eur J Med Chem, 2016).
